# Results as given in US11400058B2, “Intravenous formulations of coenzyme Q10 (CoQ10) and methods of use thereof” (Berg LLC, priority 2010, dated 2022).
# Experiments:
# [1] = system: liver clone of a malignant chloroma; assay: Effect on liver cancer: liver clone of malignant chloroma in rats, alone and with cyclophosphamide; assay type: in vivo, Fischer 344 rats; details: Group III, cyclophosphamide 35 mg/kg once
# Protocol: Effect of CoQ10 IV Formulation on Liver Cancer: The ability of a Coenzyme Q10 formulation of the present invention to inhibit proliferation of liver tumor cells was examined in an animal model. Twenty-four Fischer 344 rats were injected intraperitoneally with the liver clone of a malignant chloroma Rats were then randomized into groups of 6 rats each. Group 1 served as a control, treated with 0.5 mL of phosphate buffered saline on Monday, Wednesday and Friday for three (3) weeks. Group II received a sterile nanodispersion by IP injection of 20 mg of Coenzyme Q10. […] The formulation was administered by IP injection in a volume of 0.5 mL on Monday, Wednesday and Friday for three (3) weeks. Group III received 35 mg/kg of cyclophosphamide once. Group IV received 20 mg of the 4:3:1.5 CoQ10 formulation in 0.5 mL on Monday, Wednesday and Friday for three (3) weeks. In addition, they received 35 mg/kg of cyclophosphamide once.
# [2] = system: lung clone of a malignant chloroma; assay: Effect on lung tumors: lung clone of malignant chloroma in rats, alone and with cyclophosphamide; assay type: in vivo, Fischer 344 rats; details: Group III, cyclophosphamide 35 mg/kg IP once
# Protocol: Twenty-four Fischer 344 rats were injected intraperitoneally with the lung clone of a malignant chloroma. The rats were then randomized into groups of 6 rats each. Group 1 served as a control, treated with 0.5 mL of phosphate buffered saline (PBS) on Monday, Wednesday and Friday for three (3) weeks. […] The formulation was administered by IP injection in a volume of 0.5 mL on Monday, Wednesday, and Friday for three (3) weeks. Group III received 35 mg/kg cyclophosphamide by IP injection once.
# [3] = system: MiaPACA2; assay: MiaPACA2 pancreatic carcinoma cells injected in the pancreas of NSG mice, survival; assay type: in vivo; details: doxorubicin group
# Protocol: Effect of CoQ10 IV Formulation on Pancreatic Carcinoma Cell Line: MiaPACA2, a pancreatic cell line was employed on NSG mice. Mice were anesthetized in a sterile environment where they had been housed. Once animals reached surgical-plane anesthesia, mice were laid down, and the abdominal area was palpated. The pancreas was located behind the stomach, between the spleen, and the stomach, both of which are palpable organs. Thereafter, […] were injected in the pancreas by gently manipulating the animal to reach the area behind the stomach. All of these procedures were performed under sterile conditions in a biosafety cabinet, and the animals were housed under strict sterile conditions as well to avoid opportunistic infections. After injection of cells, animals were closely monitored daily. Animals were then randomized into 8 groups receiving a different dose of the CoQ10 N formulation. […] The formulation was administered intravenously via tail veins with dosing every other day three times per week for up to 28 days. The summary of results are depicted in the following graphs (FIGS. 49-56).
# [4] = Combination therapy with doxorubicin, survival of rodents; assay type: in vivo; details: administered intraperitoneally, by itself, in rodents
# Protocol: Combination Therapy With CoQ10 IV Formulation and Chemotherapy Adjuvant Doxorubicin, a powerful chemotherapeutic, is lethal when administered intraperitoneally, by itself, in rodents. CoQ10 IV Formulation was administered in combination with doxorubicin.
SMILES,rats remained disease-free [1],the other three rats survived up to day [1],4 rats survived up to day [2],rats remained disease-free [2],survivors at 60 days [3],lethality [4]
"O=P1(N(CCCl)CCCl)NCCCO1 (stereo not drawn) [chemotherapy, cyclophosphamide]",1 rat,34 days,35 days,1 rat,,
COc1cccc2c1C(=O)c1c(O)c3c(c(O)c1C2=O)C[C@@](O)(C(=O)CO)C[C@@H]3O[C@H]1C[C@H](N)[C@H](O)[C@H](C)O1 [doxorubicin],,,,,0 of 30,lethal
